Experimental findings from patent publication US20170114021A1, “HALOGEN-SUBSTITUTED COMPOUNDS” (priority 2014, published 2017) are described below.

Series [1] can be described thus: log P by HPLC on reversed-phase column (C18), EEC Directive 79/831 Annex V.A8. In kind it is physicochemical. As to the method: ^a) Unless indicated otherwise, the following method was used to determine the log P values and masses: The determination of the given log P values was carried out in accordance with EEC Directive 79/831 Annex V.A8 by HPLC (High Performance Liquid Chromatography) on a reversed-phase column (C18). Agilent 1100 LC system; 50*4.6 Zorbax Eclipse Plus C18 1.8 micron; mobile phase A: acetonitrile (0.1% formic acid); mobile phase B: water (0.09% formic acid); linear gradient from 10% acetonitrile to 95% acetonitrile in 4.25 min, then 95% acetonitrile for a further 1.25 min; oven temperature 55° C.; flow rate: 2.0 ml/min. Mass detection is effected by means of an Agilend MSD system.

The subject of a further series is Phaedon cochleariae. The series can be described thus: Phaedon cochleariae spray test (PHAECO). In kind it is in vivo. As to conditions: Chinese cabbage leaf discs, after 7 days. The protocol: Phaedon cochleariae—Spray Test (PHAECO) Solvent: 78.0 parts by weight of acetone • • 1.5 parts by weight of dimethylformamide Emulsifier: alkylaryl polyglycol ether
(§1) To produce a suitable preparation of active compound, 1 part by weight of active compound is dissolved using the specified parts by weight of solvent and made up with water containing an emulsifier concentration of 1000 ppm until the desired concentration is attained. To produce further test concentrations, the preparation is diluted with emulsifier-containing water.
After 7 days, efficacy in % is determined. 100% means that all the beetle larvae have been killed; 0% means that no beetle larvae have been killed.

The next series has as its system Spodoptera frugiperda. As to the kind of experiment: Spodoptera frugiperda spray test (SPODFR). In kind it is in vivo. To be noted: application rate 100 g/ha; maize leaf discs; after 7 days. As to the method: Spodoptera frugiperda—Spray Test (SPODFR)
Solvent: 78.0 parts by weight of acetone • • 1.5 parts by weight of dimethylformamide Emulsifier: alkylaryl polyglycol ether
as §1
Leaf discs of maize (Zea mays) are sprayed with an active compound preparation of the desired concentration and, after drying, populated with caterpillars of the armyworm (Spodoptera frugiperda).
After 7 days, efficacy in % is determined. 100% means that all the caterpillars have been killed; 0% means that no caterpillars have been killed.

For a further series, the system named is Tetranychus urticae. The series can be described thus: Tetranychus urticae spray test, OP-resistant (TETRUR). In kind it is in vivo. As to conditions: application rate 100 g/ha; bean leaf discs; after 6 days. As to the method:
Tetranychus urticae—Spray Test, OP-Resistant (TETRUR) Solvent: 78.0 parts by weight of acetone • • 1.5 parts by weight of dimethylformamide Emulsifier: alkylaryl polyglycol ether
as §1
Discs of bean leaves (Phaseolus vulgaris) infested by all stages of the greenhouse red spider mite (Tetranychus urticae) are sprayed with an active ingredient formulation of the desired concentration.
After 6 days, efficacy in % is determined. 100% means that all the spider mites have been killed; 0% means that no spider mites have been killed.

Another series has as its system Boophilus microplus. The series can be described thus: Boophilus microplus injection test (BOOPMI Inj). The series is classed as in vivo. As to conditions: application rate 20 μg/animal; injection into abdomen. As to the method:
Boophilus microplus—Injection Test (BOOPMI Inj) Solvent: dimethyl sulphoxide
To produce a suitable preparation of active compound, 10 mg of active compound are mixed with 0.5 ml of solvent and the concentrate is diluted with solvent to the desired concentration.
1 μl of the active compound solution is injected into the abdomen of 5 engorged adult female cattle ticks (Boophilus microplus). The animals are transferred into dishes and kept in a climate-controlled room.
The activity is assessed after the desired time by laying of fertile eggs. Eggs which are not visibly fertile are stored in a climate-controlled cabinet until the larvae hatch after about 42 days. An efficacy of 100% means that none of the ticks has laid any fertile eggs; 0% means that all the eggs are fertile.

The next series relates to Lucilia cuprina. The series can be described thus: Lucilia cuprina test (LUCICU). The series is classed as in vivo. To be noted: application rate 100 ppm; L1 larvae; after 2 days. As to the method: Lucilia cuprina-Test (LUCICU) Solvent: dimethyl sulphoxide
(§2) To produce a suitable preparation of active compound, 10 mg of active compound are mixed with 0.5 ml of dimethyl sulphoxide, and the concentrate is diluted with water to the desired concentration.
About 20 L1 larvae of the Australian sheep blowfly (Lucilia cuprina) are transferred into a test vessel containing minced horsemeat and the active compound preparation of the desired concentration.
After 2 days, the kill in % is determined. 100% means that all the larvae have been killed; 0% means that no larvae have been killed.

Another series concerns Musca domestica. The series can be described thus: Musca domestica test (MUSCDO). The series is classed as in vivo. To be noted: application rate 100 ppm; adult houseflies; after 2 days. As to the method:
Musca domestica-Test (MUSCDO) Solvent: dimethyl sulphoxide
as §2
Vessels containing a sponge treated with sugar solution and the active compound preparation of the desired concentration are populated with 10 adult houseflies (Musca domestica).
After 2 days, the kill in % is determined. 100% means that all of the flies have been killed; 0% means that none of the flies have been killed.

For a further series, the system named is Ctenocephalides felis. The series can be described thus: Ctenocephalides felis oral test (CTECFE). In kind it is in vivo. To be noted: application rate 100 ppm in citrated cattle blood; after 2 days. As to the method: Ctenocephalides felis—Oral Test (CTECFE) Solvent: dimethyl sulphoxide
To produce a suitable preparation of active compound, 10 mg of active compound are mixed with 0.5 ml of dimethyl sulphoxide. Dilution with citrated cattle blood gives the desired concentration.
About 20 unfed adult cat fleas (Ctenocephalides felis) are placed into a chamber which is closed at the top and bottom with gauze. A metal cylinder whose bottom end is closed with parafilm is placed onto the chamber. The cylinder contains the blood/active compound preparation, which can be imbibed by the fleas through the parafilm membrane.
After 2 days, the kill in % is determined. 100% means that all of the fleas have been killed; 0% means that none of the fleas have been killed.

Where [2] appears, read: reversed-phase C18 HPLC column, HPLC, C18, acetonitrile/water with formic acid gradient, read-out: log P.

Like-named read-outs stand apart in the source and are kept apart here.

`Cn1cc(C(F)(F)F)c(C(F)(F)C(F)(F)F)n1` [1-methyl-3-(1,1,2,2,2-pentafluoroethyl)-4-(trifluoromethyl)pyrazole]: the chromatographic logP in series [1] came to 3.23.
As for `Cn1nc(C(F)(F)C(F)(F)F)c(C(F)(F)F)c1-c1ccn(-c2ccc(Cl)c(C(=O)NC3CC3)c2)n1` [Id-1, 2-chloro-N-cyclopropyl-5-[2′-methyl-5′-(pentafluoroethyl)-4′-(trifluoromethyl)-1H,2′H-3,3′-bipyrazol-1-yl]benzamide], the chromatographic logP in series [1] (setting [2]) was found to be 4.05. For the same compound, the efficacy in the series on Phaedon cochleariae (application rate 100 g/ha) and with Spodoptera frugiperda was 100% throughout.
For `O=C(NC1CC1)c1cc(-n2cc(Br)cn2)ccc1Cl` [5-(4-bromopyrazol-1-yl)-2-chloro-N-cyclopropylbenzamide], the chromatographic logP in series [1] (setting [2]) was determined as 2.36.
The same measure, in the same setting: as for `O=C(NC1CC1)c1cc(I)ccc1Cl` [2-chloro-N-cyclopropyl-5-iodobenzamide], the figure is 2.13; as for `Cn1nc(C(F)(F)C(F)(F)F)c(C(F)(F)F)c1-c1c[nH]nn1` [4-[1-methyl-3-(pentafluoroethyl)-4-(trifluoromethyl)-1H-pyrazol-5-yl]-1H-1,2,3-triazole], 2.78.
Still for that read-out and setting: the value for `CON(C)C(=O)c1c(C(F)(F)F)c(C(F)(F)C(F)(F)F)nn1C` [N-methoxy-N,1-dimethyl-3-(pentafluoroethyl)-4-(trifluoromethyl)-1H-pyrazole-5-carboxamide] was 3.22.
Take `C#Cc1c(C(F)(F)F)c(C(F)(F)C(F)(F)F)nn1C` [5-ethynyl-1-methyl-3-(pentafluoroethyl)-4-(trifluoromethyl)-1H-pyrazole]: the chromatographic logP in series [1] (setting [2]) was determined as 3.74.
On the same count and under the same terms, the value for `O=C(NC1CC1)c1cc(B(O)O)ccc1Cl` [[4-chloro-3-(cyclopropylcarbamoyl)phenyl]boronic acid] was 0.96.
Consider `CN(C)/C=C/C(=O)c1c(C(F)(F)F)c(C(F)(F)C(F)(F)F)nn1C` [(2E)-3-(dimethylamino)-1-[1-methyl-3-(pentafluoroethyl)-4-(trifluoromethyl)-1H-pyrazol-5-yl]prop-2-en-1-one], for which the chromatographic logP in series [1] (setting [2]) stood at 2.77.
Consider `[N-]=[N+]=Nc1ccc(Cl)c(C(=O)NC2CC2)c1` [5-azido-2-chloro-N-cyclopropylbenzamide], for which, in series [1] (setting [2]), the chromatographic logP turned out to be 1.8.
Regarding `Cn1nc(C(F)(F)C(F)(F)F)c(C(F)(F)F)c1-c1nnn(-c2ccc(Cl)c(C(=O)NC3CC3)c2)n1` [Ih-1, 2-chloro-N-cyclopropyl-5-{5-[1-methyl-3-(pentafluoroethyl)-4-(trifluoromethyl)-1H-pyrazol-5-yl]-2H-tetrazol-2-yl}benzamide], the efficacy in the series on Tetranychus urticae is listed as 90%; in the series on Phaedon cochleariae (application rate 20 g/ha), 100%; in the series with Spodoptera frugiperda, 100%. Moreover, the chromatographic logP in series [1] (setting [2]) amounted to 4.06.
For `Cn1nc(C(F)(F)C(F)(F)F)c(C(F)(F)F)c1-c1cc[nH]n1` [2′-methyl-5′-(pentafluoroethyl)-4′-(trifluoromethyl)-1H,2′H-3,3′-bipyrazole], the chromatographic logP in series [1] (setting [2]) amounted to 3.03.
Same read-out and setting: as for `CC(=O)c1c(C(F)(F)F)c(C(F)(F)C(F)(F)F)nn1C` [1-[1-methyl-3-(pentafluoroethyl)-4-(trifluoromethyl)-1H-pyrazol-5-yl]ethanone], the figure is 3.61; as for `Cn1nc(C(F)(F)C(F)(F)F)c(C(F)(F)F)c1-c1nn[nH]n1` [5-[1-methyl-3-(pentafluoroethyl)-4-(trifluoromethyl)-1H-pyrazol-5-yl]-2H-tetrazole], 2.11.
Regarding `Cn1nc(C(F)(F)C(F)(F)F)c(C(F)(F)F)c1-c1cnn(-c2ccc(Cl)c(C(=O)NC3CC3)c2)n1` [If-1, 2-chloro-N-cyclopropyl-5-{4-[1-methyl-3-(pentafluoroethyl)-4-(trifluoromethyl)-1H-pyrazol-5-yl]-2H-1,2,3-triazol-2-yl}benzamide], the efficacy in the series with Tetranychus urticae, in the series with Phaedon cochleariae (application rate 100 g/ha) and with Spodoptera frugiperda was 100% in each case. For the same compound, the chromatographic logP in series [1] (setting [2]) was 4.17. Besides, in the series with Boophilus microplus, the “efficacy (laying of fertile eggs)” value amounted to 100%. In addition, the “efficacy (kill)” value in the series with Lucilia cuprina, in the series on Musca domestica and in the series with Ctenocephalides felis was 100% throughout.
With `Cn1nc(C(F)(F)C(F)(F)F)c(C(F)(F)F)c1B1OC(C)(C)C(C)(C)O1` [1-methyl-3-(1,1,2,2,2-pentafluoroethyl)-5-(4,4,5,5-tetramethyl-1,3,2-dioxaborolan-2-yl)-4-(trifluoromethyl)pyrazole], in series [1] (setting [2]), the chromatographic logP was found to be 5.05.
